The values that follow come from paper PMC11944621, “Synthesis, Molecular Simulation, DFT, and Kinetic Study of Imidazotriazole-Based Thiazolidinone as Dual Inhibitor of Acetylcholinesterase and Butyrylcholinesterase Enzymes” (Pharmaceuticals, 2025).

Where two headings read alike, the source gives them in different places.

A word on the IC50: it is the point on the concentration scale where inhibition reaches its midpoint.

Test [1] has as its target T1, AChE (Homo sapiens, UniProt P22303). The test is described as follows: biochemical. Conditions: in vitro, triplicate; read-out: AchE IC50 ± SEM. On the procedure:
(§1) With some modifications, inhibitory potential against AChE and BuChE was investigated according to the reported protocol. […] Added test compound (well-1) with volume of 10 µL and a concentration of 0.5 mM followed by the addition of an enzyme of 10 µL (0.005 unit well-1). Pre-incubation of substances at 37 °C for 10 min was achieved. Reaction was started by adding 10 µL of 0.5 mM well-1 substrate (acetylthiocholine iodide/ butyrylthiochloine chloride) followed by addition of 10 µL DTNB (0.5 mM well-1). […] All experiments were performed with their respective controls in triplicate. […] The % inhibition was computed using the following equation:Inhibition (%) = Control − Test/control × 100 […]
(§2) S.2 AChE and BuChE assay protocols
(§3) With a little bit modification, inhibitory potential against AChE and BuChE was investigated according to the reported protocol. The total volume of the reaction mixture was kept at 100 µL, […]
(§4) compound (well-1) with volume of 10µL and a concentration of 0.5mM followed by the addition of an enzyme of 10 µL (0.005 unit well-1). Pre-incubation of substances at 37 °C for 10 min was achieved. Reaction was started by addition of 10µL of 0.5mM well-1 substrate (acetylthiocholine iodide/ butyrylthiochloine chloride) followed by addition of 10µL DTNB (0.5mM well-1).
(§5) Synergy HT, BioTek, US. All experiments were done with their respective controls in triplicate.
(§6) The % inhibition was computed using the following equation
(§7) Inhibition (%) = Control – Test/control x 100
(§8) Control EZ-Fit Enzyme kinetics software (Perrella Scientific Inc. Amherst, USA) was used for the calculation of IC50 values. […]

Test [2] deals with T2, BChE (Homo sapiens, UniProt P06276). Description: biochemical. Conditions: in vitro, triplicate; read-out: BChE IC50 ± SEM. On the procedure: as §1, §2, §3, §4, §5, §6, §7, §8
The test system of test [3] is enzyme. The test is described as follows: Enzyme kinetics (mode of inhibition). The test is classed as biochemical. The source says:
This is an in vitro approach, which measures the initial inhibition rate with the change in the inhibitor concentration.

For test [4], the target named is T1, AChE. The following applies: previously reported thiazolidinone analog; read-out: IC50 against AChE; cited from earlier work.
The target in test [5] is T2, BChE. Conditions: cited from earlier work.

T1 sequence (P22303 32-614): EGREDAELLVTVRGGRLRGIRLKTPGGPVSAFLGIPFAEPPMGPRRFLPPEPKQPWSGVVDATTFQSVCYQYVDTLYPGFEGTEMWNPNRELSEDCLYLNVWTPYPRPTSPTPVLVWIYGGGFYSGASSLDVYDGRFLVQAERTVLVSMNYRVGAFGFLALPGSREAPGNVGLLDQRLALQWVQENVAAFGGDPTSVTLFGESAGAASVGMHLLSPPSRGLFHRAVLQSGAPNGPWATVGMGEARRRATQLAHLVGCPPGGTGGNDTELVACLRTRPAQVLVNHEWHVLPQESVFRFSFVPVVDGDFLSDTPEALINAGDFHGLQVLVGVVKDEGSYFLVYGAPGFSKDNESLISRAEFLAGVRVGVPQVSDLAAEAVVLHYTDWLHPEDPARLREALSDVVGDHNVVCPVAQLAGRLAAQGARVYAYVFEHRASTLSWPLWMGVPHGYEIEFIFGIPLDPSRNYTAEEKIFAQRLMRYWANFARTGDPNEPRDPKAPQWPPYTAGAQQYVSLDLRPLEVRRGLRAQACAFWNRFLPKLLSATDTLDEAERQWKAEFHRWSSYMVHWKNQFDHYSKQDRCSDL
T2 sequence (P06276 29-602): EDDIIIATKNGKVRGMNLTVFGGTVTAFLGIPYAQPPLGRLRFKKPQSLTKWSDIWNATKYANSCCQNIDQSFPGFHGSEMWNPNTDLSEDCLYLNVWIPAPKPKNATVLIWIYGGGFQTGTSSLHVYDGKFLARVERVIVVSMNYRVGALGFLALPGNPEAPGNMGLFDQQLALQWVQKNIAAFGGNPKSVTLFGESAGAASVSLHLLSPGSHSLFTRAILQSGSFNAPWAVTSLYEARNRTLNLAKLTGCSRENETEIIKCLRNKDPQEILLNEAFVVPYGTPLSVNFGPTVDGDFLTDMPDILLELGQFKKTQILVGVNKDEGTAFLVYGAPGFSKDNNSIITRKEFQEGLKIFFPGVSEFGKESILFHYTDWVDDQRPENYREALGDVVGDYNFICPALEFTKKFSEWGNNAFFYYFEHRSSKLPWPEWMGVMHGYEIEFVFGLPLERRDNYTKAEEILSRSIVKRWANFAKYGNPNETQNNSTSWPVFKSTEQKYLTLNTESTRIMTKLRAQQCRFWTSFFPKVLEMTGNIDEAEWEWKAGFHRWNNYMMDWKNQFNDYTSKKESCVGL

Consider `COc1cc(-c2nnc3[nH]ccn23)ccc1N1C(=O)CSC1c1ccc(C(F)(F)F)cc1` (stereo not shown) [Analog 10], for which the IC50 amounted to 6.7 ± 0.2 µM in test [1] and 7.1 ± 0.1 µM in test [2]. The “Mode of inhibition (enzyme kinetics)” value in test [3] is on record as “competitive inhibitor”.

Take `O=C1/C(=C\c2ccc(N3CCCC3)cc2)S/C(=N/N2CCOCC2)N1c1ccccc1` [(E)-2-(morpholinoimino)-3-phenyl-5-((E)-4-(pyrrolidin-1-yl)benzylidene)thiazolidin-4-one]: the IC50 is 17.4 ± 0.22 µM in test [4] and 24.4 ± 0.51 µM in test [5] (previously reported thiazolidinone analog, read-out: IC50 against BChE).

As to `COc1cc(-c2nnc3[nH]ccn23)ccc1N1C(=O)CSC1c1ccc(F)cc1F` (stereo not shown) [Analog 3], the figures for the IC50 in test [1] and in test [2] were 8.1 ± 0.4 µM and 8.5 ± 0.3 µM, respectively.

As to `COc1cc(-c2nnc3[nH]ccn23)ccc1N1C(=O)CSC1c1ccc(F)cc1O` (stereo not shown) [Analog 11], the IC50 in test [1] is 8.3 ± 0.2 µM; in test [2], 8.6 ± 0.3 µM.

As to `Cc1ccc(-c2cn(Cc3ccc4ccccc4c3)nn2)cc1C(=O)NCCN1CCOCC1` [2-methyl-N-(2-morpholinoethyl)-5-(1-(naphthalen-2-ylmethyl)-1H-1,2,3-triazol-4-yl)benzamide], the IC50 in test [5] (read-out: IC50 for BChE, previously reported triazole analog) was 90.76 ± 0.21 µM.
